From US9579319B2 (Redx Pharma PLC, priority 2013, dated 2017)

System: Hedgehog signalling pathway
Assay: Gli-reporter NIH3T3 luciferase assay (Hedgehog pathway inhibition)
Format: cell-based
Details: NIH3T3; Gli-reporter NIH-3T3 cells, recombinant mouse sonic hedgehog, 24 hours, luminescence; read-out: Category (Hedgehog pathway inhibition activity, IC50)
How it was run: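 Mouse NIH3T3 cells with Gli-responsive luciferase reporter, pre-treated 1 h with compound (top final concentration 1 μM, 0.1% DMSO) in 0.5% calf serum medium. Then stimulated with recombinant mouse sonic hedgehog for 24 h at 37° C. Luminescence read-out (OneGLO), triplicates; IC50 reported.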

IC50, 10 to 200 nM:
Cn1nccc1-c1nnc(N2CCC(NCc3cccc(OC(F)(F)F)c3)CC2)c2ccccc12 [Example 34, 1-[4-(2-methylpyrazol-3-yl)phthalazin-1-yl]-N-[[3-(trifluoromethoxy)phenyl]methyl]piperidin-4-amine]
Cn1nccc1-c1nnc(N2CCC(NCc3ccncc3C(F)(F)F)CC2)c2ccccc12 [Example 51, 1-[4-(2-methylpyrazol-3-yl)phthalazin-1-yl]-N-[[3-(trifluoromethyl)-4-pyridyl]methyl]piperidin-4-amine]
CN(Cc1ccccc1OC(F)F)C1CCN(c2nnc(-c3ccnn3C)c3ccccc23)CC1 [Example 12, N-[[2-(difluoromethoxy)phenyl]methyl]-N-methyl-1-[4-(2-methylpyrazol-3-yl)phthalazin-1-yl]piperidin-4-amine]
Cn1nccc1-c1nnc(N2CCC(NCc3ccccc3F)CC2)c2ccccc12 [Example 72, N-[(2-fluorophenyl)methyl]-1-[4-(2-methylpyrazol-3-yl)phthalazin-1-yl]piperidin-4-amine]
Cn1nccc1-c1nnc(N2CCC(NCc3ccccc3Cl)CC2)c2ccccc12 [Example 38, N-[(2-chlorophenyl)methyl]-1-[4-(2-methylpyrazol-3-yl)phthalazin-1-yl]piperidin-4-amine]
Cn1nccc1-c1nnc(N2CCC(NCc3ccc(F)nc3F)CC2)c2ccccc12 [Example 76, N-[(2,6-difluoro-3-pyridyl)methyl]-1-[4-(2-methylpyrazol-3-yl)phthalazin-1-yl]piperidin-4-amine]
CCOc1ccccc1CNC1CCN(c2nnc(-c3ccnn3C)c3ccccc23)CC1 [Example 52, N-[(2-ethoxyphenyl)methyl]-1-[4-(2-methylpyrazol-3-yl)phthalazin-1-yl]piperidin-4-amine]

IC50, 200 to 2000 nM:
COc1ccc(CNC2CCN(c3nnc(-c4ccnn4C)c4ccccc34)CC2)cc1 [Example 71, N-[(4-methoxyphenyl)methyl]-1-[4-(2-methylpyrazol-3-yl)phthalazin-1-yl]piperidin-4-amine]
COc1nnc(N2CCC(NCc3ccc(F)cc3C(F)(F)F)CC2)c2ccccc12 [Example 58, N-[[4-fluoro-2-(trifluoromethyl)phenyl]methyl]-1-(4-methoxyphthalazin-1-yl)piperidin-4-amine]
Cn1nccc1-c1nnc(N2CCC(NCc3ccc(C#N)cc3)CC2)c2ccccc12 [Example 68, 4-[[[1-[4-(2-methylpyrazol-3-yl)phthalazin-1-yl]-4-piperidyl]amino]methyl]benzonitrile]
Cn1nccc1-c1nnc(N2CCC(NCc3ccc(F)cc3F)CC2)c2ccccc12 [Example 74, N-[(2,4-difluorophenyl)methyl]-1-[4-(2-methylpyrazol-3-yl)phthalazin-1-yl]piperidin-4-amine]

IC50, < 10 nM:
Cn1nccc1-c1nnc(N2CCC(NC(=O)Nc3ccccc3OC(F)(F)F)CC2)c2ccccc12 [Example 25, 1-[1-[4-(2-methylpyrazol-3-yl)phthalazin-1-yl]-4-piperidyl]-3-[2-(trifluoromethoxy)phenyl]urea]
Cn1nccc1-c1nnc(N2CCC(NC(=O)Nc3ccc(F)cc3C(F)(F)F)CC2)c2ccccc12 [Example 23, 1-[4-fluoro-2-(trifluoromethyl)phenyl]-3-[1-[4-(2-methylpyrazol-3-yl)phthalazin-1-yl]-4-piperidyl]urea]
Cn1nccc1-c1nnc(N2CCC(NC(=O)Nc3ccccc3F)CC2)c2ccccc12 [Example 46, 1-(2-fluorophenyl)-3-[1-[4-(2-methylpyrazol-3-yl)phthalazin-1-yl]-4-piperidyl]urea]
CSc1ccccc1CN(C)C1CCN(c2nnc(-c3ccnn3C)c3ccccc23)CC1 [Example 28, N-methyl-1-[4-(2-methylpyrazol-3-yl)phthalazin-1-yl]-N-[(2-methylsulfanylphenyl)methyl]piperidin-4-amine]
Cn1nccc1-c1nnc(N2CCC(NCc3ccccc3C(F)(F)F)CC2)c2ccccc12 [Example 40, 1-[4-(2-methylpyrazol-3-yl)phthalazin-1-yl]-N-[[2-(trifluoromethyl)phenyl]methyl]piperidin-4-amine]
Cn1nccc1-c1nnc(N2CCC(NS(=O)(=O)c3ccc(F)cc3C(F)(F)F)CC2)c2ccccc12 [Example 50, 4-fluoro-N-[1-[4-(2-methylpyrazol-3-yl)phthalazin-1-yl]-4-piperidyl]-2-(trifluoromethyl)benzenesulfonamide]
Cn1nccc1-c1nnc(N2CCC(NC(=O)Nc3ccc(F)cc3F)CC2)c2ccccc12 [Example 8]

Same assay, conditions: NIH3T3; Gli-reporter NIH-3T3 cells, recombinant mouse sonic hedgehog, 24 hours, luminescence; read-out: Gli Luc nM (IC50)

IC50, 0.99 nM:
Cn1nccc1-c1nnc(N2CCC(NC(=O)Nc3ccc(F)cc3F)CC2)c2ccccc12 [Example 8]

IC50, 1.79 nM:
Cn1nccc1-c1nnc(N2CCC(NS(=O)(=O)c3ccc(F)cc3C(F)(F)F)CC2)c2ccccc12 [Example 50, 4-fluoro-N-[1-[4-(2-methylpyrazol-3-yl)phthalazin-1-yl]-4-piperidyl]-2-(trifluoromethyl)benzenesulfonamide]

IC50, 0.66 nM:
Cn1nccc1-c1nnc(N2CCC(NC(=O)Nc3ccc(F)cc3C(F)(F)F)CC2)c2ccccc12 [Example 23, 1-[4-fluoro-2-(trifluoromethyl)phenyl]-3-[1-[4-(2-methylpyrazol-3-yl)phthalazin-1-yl]-4-piperidyl]urea]

Same assay, conditions: NIH3T3; Gli-reporter NIH-3T3 cells, recombinant mouse sonic hedgehog, 24 hours, luminescence; read-out: Gli luc IC50

IC50, < 10 nM:
CN(C(=O)Nc1ccc(F)cc1C(F)(F)F)C1CCN(c2nnc(-c3ccnn3C)c3cccnc23)CC1 [Example 137, 3-[4-fluoro-2-(trifluoromethyl)phenyl]-1-methyl-1-[1-[5-(2-methylpyrazol-3-yl)pyrido[2,3-d]pyridazin-8-yl]-4-piperidyl]urea]
Cn1nccc1-c1nnc(N2CCC(NS(=O)(=O)c3ccc(F)cc3C(F)(F)F)CC2)c2c1CCC2 [Example 159, 4-fluoro-N-[1-[1-(2-methylpyrazol-3-yl)-6,7-dihydro-5H-cyclopenta[d]pyridazin-4-yl]-4-piperidyl]-2-(trifluoromethyl)benzenesulfonamide]
CN(Cc1ccccc1OC(F)(F)F)C1CCN(c2nnc(-c3ccnn3C)c3ccccc23)CC1 [Example 162, N-methyl-1-[4-(2-methylpyrazol-3-yl)phthalazin-1-yl]-N-[[2-(trifluoromethoxy)phenyl]methyl]piperidin-4-amine]
Cn1nccc1-c1nnc(N2CCC(NC(=O)Nc3ccc(OC(F)(F)F)cc3)CC2)c2ccccc12 [Example 167, 1-[1-[4-(2-methylpyrazol-3-yl)phthalazin-1-yl]-4-piperidyl]-3-[4-(trifluoromethoxy)phenyl]urea]
CN(Cc1cccnc1C(F)(F)F)C1CCN(c2nnc(-c3ccnn3C)c3ccccc23)CC1 [Example 157, N-methyl-1-[4-(2-methylpyrazol-3-yl)phthalazin-1-yl]-N-[[2-(trifluoromethyl)-3-pyridyl]methyl]piperidin-4-amine]

IC50, > 200 nM:
CN(Cc1ccc(F)cc1C(F)(F)F)C1CCN(c2nnc(-c3ccnn3C)c3ncccc23)CC1 [Example 130, N-[[4-fluoro-2-(trifluoromethyl)phenyl]methyl]-N-methyl-1-[8-(2-methylpyrazol-3-yl)pyrido[2,3-d]pyridazin-5-yl]piperidin-4-amine]
CSc1ccccc1CN(C)C1CCN(c2nnc(-c3ccnn3C)c(C)c2C)CC1 [Example 88, 1-[4,5-dimethyl-6-(2-methylpyrazol-3-yl)pyridazin-3-yl]-N-methyl-N-[(2-methylsulfanylphenyl)methyl]piperidin-4-amine]
Fc1ccc(CNC2CCN(c3nnc(N4CCOCC4)c4ccccc34)CC2)c(C(F)(F)F)c1 [Example 145, N-[[4-fluoro-2-(trifluoromethyl)phenyl]methyl]-1-(4-morpholinophthalazin-1-yl)piperidin-4-amine]
Cn1nccc1-c1nnc(N2CCC(NCc3ccc(F)c(C#N)c3)CC2)c2c1CCC2 [Example 128, 2-fluoro-5-[[[1-[1-(2-methylpyrazol-3-yl)-6,7-dihydro-5H-cyclopenta[d]pyridazin-4-yl]-4-piperidyl]amino]methyl]benzonitrile]

IC50, 10 to 200 nM:
Cn1nccc1-c1nnc(N2CCC(NC(=O)NC(C)(C)C)CC2)c2c1CCC2 [Example 161, 1-tert-butyl-3-[1-[1-(2-methylpyrazol-3-yl)-6,7-dihydro-5H-cyclopenta[d]pyridazin-4-yl]-4-piperidyl]urea]
CN(Cc1ccc(F)cc1C(F)(F)F)CC1CCN(c2nnc(-c3ccnn3C)c3ccccc23)C1 (stereo not shown) [Example 139, 1-[4-fluoro-2-(trifluoromethyl)phenyl]-N-methyl-N-[[1-[4-(2-methylpyrazol-3-yl)phthalazin-1-yl]pyrrolidin-3-yl]methyl]methanamine]
CN(C1CCN(c2nnc(-c3ccnn3C)c3ccncc23)CC1)S(=O)(=O)c1ccc(F)cc1F [Example 102, 2,4-difluoro-N-methyl-N-[1-[1-(2-methylpyrazol-3-yl)pyrido[3,4-d]pyridazin-4-yl]-4-piperidyl]benzenesulfonamide]
CN(C1CCN(c2nnc(-c3ccnn3C)c3cccnc23)CC1)S(=O)(=O)c1ccc(F)cc1C(F)(F)F [Example 134, 4-fluoro-N-methyl-N-[1-[5-(2-methylpyrazol-3-yl)pyrido[2,3-d]pyridazin-8-yl]-4-piperidyl]-2-(trifluoromethyl)benzenesulfonamide]
Cc1c(-c2ccnn2C)nnc(N2CCC(N(C)Cc3ncccc3C(F)(F)F)CC2)c1C [Example 85, 1-[4,5-dimethyl-6-(2-methylpyrazol-3-yl)pyridazin-3-yl]-N-methyl-N-[[3-(trifluoromethyl)-2-pyridyl]methyl]piperidin-4-amine]
CN(C(=O)NC(C)(C)C)C1CCN(c2nnc(-c3ccnn3C)c3c2CCC3)CC1 [Example 133, 3-tert-butyl-1-methyl-1-[1-[1-(2-methylpyrazol-3-yl)-6,7-dihydro-5H-cyclopenta[d]pyridazin-4-yl]-4-piperidyl]urea]
COc1ccc(-c2nnc(N3CCC(NS(=O)(=O)c4ccc(F)cc4C(F)(F)F)CC3)c(C)c2C)cn1 [Example 117, 4-fluoro-N-[1-[6-(6-methoxy-3-pyridyl)-4,5-dimethyl-pyridazin-3-yl]-4-piperidyl]-2-(trifluoromethyl)benzenesulfonamide]
